Laboratory results: paper PMC8205030, “Methoxy and bromo scans on N-(5-methoxyphenyl) methoxybenzenesulphonamides reveal potent cytotoxic compounds, especially against the human breast adenocarcinoma MCF7 cell line” (Journal of Enzyme Inhibition and Medicinal Chemistry, 2021)
≈ marks a conversion by molar mass, not a printed value. Read-outs that look alike come from different tables or passages of the source.

Legend:
[1] = system: HEK293 (human embryonic kidney) cells; assay: Cell growth assay (XTT), non-tumorigenic HEK293; assay type: cell-based; conditions: for IC50: Homo sapiens, HEK293, non-tumorigenic cell line, 72 h, XTT, read-out: Antiproliferative activity IC50 HEK293
Procedure: (§1) The presence of mycoplasma was routinely checked with MycoAlert kit (Lonza-Cambrex) and only mycoplasma-free cells were used in the experiments. Tumour cell lines were kindly provided by Dr Faustino Mollinedo from Centro de Investigaciones Biológicas Margarita Salas, Madrid, Spain. To determine cell growth, cells in exponential growth phase were seeded (100 µL/well in 96-well plates) with appropriate cell concentration (1.5 × 10^4 cells/mL for MCF7, HeLa and HEK-293 and 3 × 10^4 cells/mL for HT-29) in complete DMEM or RPMI 1640 medium (see above) at 37 °C and 5% CO2 atmosphere. After 24 h incubation, to allow cells to attach to the plates, all compounds were added at 1 µM concentration (10 µL/well in 96-well plates) and the effect on the proliferation was evaluated 72 h post-treatment. Compounds showing antiproliferative effects at tested concentration were selected for IC50 calculation (50% inhibitory concentration compared to the untreated controls) from 10^−5 to 10^−10 M concentration. Nonlinear curves fitting the experimental data were carried out for each compound. […] A freshly prepared mixture solution of XTT labelling reagent with 0.02% (v/v) PMS (N-methyl-dibenzopyrazine methyl sulfate) electron coupling reagent was added to cells (50 µL/well in 96-well plates, the total volume of 160 µL/well) and were incubated during the corresponding time according to each cell line (4 h for MCF7 and HeLa and 6 h for HT-29 and HEK-293) in a humidified atmosphere (37 °C, 5% CO2). The absorbance of the formazan product generated was measured at a test wavelength of 450 nm using a multi-well plate reader (Ultra Evolution, Tecan, Männedorf, Suiza). Compounds were dissolved in DMSO and the final solvent concentrations never exceeded 0.5% (v/v). The control wells included treated cells with 0.5% (v/v) DMSO and the positive control. 10 µM verapamil was included as a control for the HT-29 cell line. Measurements were performed in triplicate, and each experiment was repeated three times.

[2] = system: MCF7 (human breast carcinoma) cells; assay: Cell growth assay (XTT), MCF7; assay type: cell-based; conditions: for IC50: Homo sapiens, MCF7, 72 h drug exposure, XTT, read-out: Antiproliferative activity IC50 MCF7
Procedure: as §1

[3] = Aqueous solubility (saturation shake-flask, UV); assay type: physicochemical; conditions: aqueous buffer, thermodynamic from solid, pH 7.0 phosphate buffer, room temperature
Procedure: The aqueous solubility was determined in a Helios-α UV-320 Spectrophotometer Thermo-Spectronic, Thermo Fischer Scientific, Waltham, MA, USA) using an approach based on the saturation shake-flask method. 1–2 mg of each selected compound was suspended in 300 µL pH 7.0 buffer and stirred for 48 h at room temperature. The resulting mixture was filtered through a […] filter to discard the insoluble residues. A scan between 270 and 400 nm for the tested compound was performed and three wavelengths of maximum absorbance were selected. Calibration curves were performed at these wavelengths and the concentration in the supernatant was measured by UV absorbance. The final value was given as the average of the three measurements.

[4] = biological target: T1, microtubular protein isolated from calf brain (Bos taurus, UniProt P81947+Q6B856); assay: Inhibition of tubulin polymerisation (turbidity); assay type: biochemical; conditions: for TPI % 10 µM: 10 µM compound, 1.5 mg/mL microtubular protein; for IC50: in vitro tubulin polymerisation inhibition, read-out: TPI IC50
T1 construct: isolated from calf brain according to the modified Shelanski method; from tissue; host or cells: calf brain
Procedure: Microtubular protein was isolated from calf brain according to the modified Shelanski method[23]^,[24] by two cycles of temperature-dependent assembly/disassembly and stored at −80 °C. Before each use, protein concentration is determined by Bradford method[25] taking BSA as standard. Tubulin polymerisation was monitored using a Helios α spectrophotometer by measuring the increase in turbidity at 450 nm, caused by a shift from 4 °C to 37 °C, which allows the in vitro microtubular protein to depolymerise and to polymerise, respectively. The assay was carried out in quartz cuvettes containing 1.5 mg/mL microtubular protein and the ligand (except for control cuvette with only DMSO at the same concentration) in a mixture of 0.1 M MES buffer, 1 mM EGTA, 1 mM MgCl2, 1 mM β-ME, and 1.5 mM GTP at pH 6.7 (final volume 500 µL). Cuvettes were preincubated at 20 °C for 30 min, to allow ligand binding to tubulin, and subsequently cooled on ice for 10 min. Then, the experiment starts at 4 °C to establish the initial baseline. The assembly process was initiated by a temperature shift to 37 °C and the turbidity produced by tubulin polymerisation can be measured by an absorbance increase. After reaching a stable plateau, the temperature was switched back to 4 °C to return to the initial absorption values (to confirm the reversible nature of the monitored process and to determine whether or not the microtubular protein has stabilized). The difference in amplitude between the stable plateau and the initial baseline of the curves was taken as the degree of tubulin polymerisation for each experiment. […] All compounds were tested at 10 µM concentration. IC50 values were calculated for compounds that inhibit tubulin polymerisation more than 50% at 10 µM. […] All the measurements were carried out in at least two independent experiments using microtubular protein from different preparations.

[5] = system: HT-29 (human colon carcinoma) cells; assay: Cell growth assay (XTT), HT-29, alone or with verapamil; assay type: cell-based
Procedure: as §1, with “Compounds showing antiproliferative effects at tested concentration were selected for IC50 calculation (50% inhibitory concentration compared to the untreated controls) from 10^−5 to 10^−10 M concentration.” left out

[6] = system: HeLa (human cervical carcinoma) cells; assay: Cell growth assay (XTT), HeLa; assay type: cell-based; conditions: 72 h drug exposure, read-out: Antiproliferative activity IC50 HeLa
Procedure: as §1

[7] = 72 h, in the presence of Pgp/MDR1 inhibitor verapamil (10 µM), read-out: Antiproliferative activity IC50 HT-29 Verap
[8] = Homo sapiens, HT-29, 72 h drug exposure, XTT, read-out: Antiproliferative activity IC50 HT-29

T1 sequence (Q6B856 whole entry): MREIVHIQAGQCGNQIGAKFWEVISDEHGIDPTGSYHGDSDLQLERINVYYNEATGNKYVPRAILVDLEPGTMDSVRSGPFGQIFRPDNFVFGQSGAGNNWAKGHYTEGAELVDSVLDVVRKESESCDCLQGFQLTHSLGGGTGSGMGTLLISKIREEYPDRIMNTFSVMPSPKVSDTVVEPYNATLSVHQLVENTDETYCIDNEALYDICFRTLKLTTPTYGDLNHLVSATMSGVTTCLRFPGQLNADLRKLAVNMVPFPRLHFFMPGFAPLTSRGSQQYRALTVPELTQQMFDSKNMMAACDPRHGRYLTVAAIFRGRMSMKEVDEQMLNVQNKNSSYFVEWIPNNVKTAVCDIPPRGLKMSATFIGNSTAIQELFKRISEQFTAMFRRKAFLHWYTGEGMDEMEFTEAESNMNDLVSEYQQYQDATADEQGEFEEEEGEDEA
T1 sequence (P81947 whole entry): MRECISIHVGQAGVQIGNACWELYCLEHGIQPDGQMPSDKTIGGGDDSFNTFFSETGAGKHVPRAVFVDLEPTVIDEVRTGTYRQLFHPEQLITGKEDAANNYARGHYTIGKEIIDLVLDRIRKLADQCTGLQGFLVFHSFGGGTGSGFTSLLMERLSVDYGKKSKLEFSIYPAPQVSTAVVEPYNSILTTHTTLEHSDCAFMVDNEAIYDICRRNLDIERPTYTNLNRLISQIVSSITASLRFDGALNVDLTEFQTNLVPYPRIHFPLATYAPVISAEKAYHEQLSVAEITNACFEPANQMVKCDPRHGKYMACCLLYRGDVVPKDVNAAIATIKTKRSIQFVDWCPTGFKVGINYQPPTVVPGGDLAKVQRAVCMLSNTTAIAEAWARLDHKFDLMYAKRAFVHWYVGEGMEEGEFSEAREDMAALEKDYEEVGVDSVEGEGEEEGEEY

| melting point [°C] | IC50 [2] [nM] | solubility at 48 h [3] [µg/mL] | TPI % 10 µM [4] [%] | IC50 [4] [nM] | IC50 [5, 7] [nM] | IC50 [5, 8] [nM] | IC50 [6] [nM] | SMILES | Selectivity index HEK293 vs HeLa and MCF7 tumour cells [1] | IC50 [1] [nM] | Fold more potent against MCF7 than against HeLa ([2]; ratio of IC50 values) |
| --- | --- | --- | --- | --- | --- | --- | --- | --- | --- | --- | --- |
| 105 to 110 | 153 | 25 (≈ 74.1 µM) | 4 | > 10000 | 305 | 250 | 177 | COc1ccc(S(=O)(=O)N(C)c2cc(OC)ccc2OC)cc1 [Compound 22, N-(2,5-dimethoxyphenyl)-4-methoxy-N-methylbenzenesulphonamide] | 3- to 5 fold | 517 |  |
| 118 to 119 | 25 | 9 (≈ 22.4 µM) | 65 | 6900 | 30 | 72 | 45 | COc1ccc(S(=O)(=O)Nc2cc(OC)c(Br)cc2OC)cc1 [Compound 23, N-(4-bromo-2,5-dimethoxyphenyl)-4-methoxybenzenesulphonamide] | 0.5 to 2 fold | 43 |  |
| 101 to 102 | > 1000 | 82 (≈ 254 µM) | 4 | > 10000 |  | > 1000 | > 1000 | COc1ccc(S(=O)(=O)Nc2ccc(OC)c(OC)c2)cc1 [Compound 11, N-(3,4-dimethoxyphenyl)-4-methoxybenzenesulphonamide] |  |  |  |
| 114 to 115 | 350 | 13 (≈ 40.2 µM) | 0 | > 10000 |  | 187 | 227 | COc1ccc(S(=O)(=O)Nc2cc(OC)ccc2OC)cc1 [Compound 21, N-(2,5-dimethoxyphenyl)-4-methoxybenzenesulphonamide] |  |  |  |
| 137 to 143 | 99 | 157 (≈ 427 µM) | 0 | > 10000 | 577 | 500 | 413 | COc1ccc(S(=O)(=O)N(C)c2cc(OC)c(OC)cc2OC)cc1 [Compound 33, 4-Methoxy-N-methyl-N-(2,4,5-trimethoxyphenyl)benzenesulphonamide] |  |  | 4–7 fold |
| 120 to 128 | 765 | 35 (≈ 104 µM) | 10 | > 10000 |  | > 1000 | 877 | COc1ccc(S(=O)(=O)N(C)c2cc(OC)cc(OC)c2)cc1 [Compound 2, N-(3,5-dimethoxyphenyl)-4-methoxy-N-methylbenzenesulphonamide] |  |  |  |
| 112 to 114 | 580 | 213 (≈ 603 µM) | 3 | > 10000 | 553 | 360 | 410 | COc1ccc(S(=O)(=O)Nc2cc(OC)c(OC)cc2OC)cc1 [Compound 32, 4-Methoxy-N-(2,4,5-trimethoxyphenyl)benzenesulphonamide] |  |  |  |
| 132 to 133 | 19 | 1 (≈ 2.4 µM) | 59 | 7600 | 160 | 123 | 33 | COc1ccc(S(=O)(=O)N(C)c2cc(OC)c(Br)cc2OC)cc1 [Compound 24, N-(4-bromo-2,5-dimethoxyphenyl)-4-methoxy-N-methylbenzenesulphonamide] | 3- to 5 fold | 91 |  |
